# Source: PubChem BioAssay (NCI)
#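 Interpolation was linear, between the two tested concentrations surrounding the appropriate level; five concentrations were tested over 48 hours in 96-well plates. At the GI50, growth is halved. TGI is the concentration that stops growth completely.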
# Tests used:
# Test in all cases: NCI anticancer screen, dose series, 48 h
# MCF7 breast = system: MCF7 breast
# SK-MEL-2 melanoma = system: SK-MEL-2 melanoma
# RPMI-8226 leukemia = system: RPMI-8226 leukemia
# DU-145 prostate = system: DU-145 prostate
# ACHN renal = system: ACHN renal
# M14 melanoma = system: M14 melanoma
# HOP-92 NSCLC = system: HOP-92 NSCLC
# KM12 colon = system: KM12 colon
# T-47D breast = system: T-47D breast
# NCI-H460 lung = system: NCI-H460 lung
# NCI/ADR-RES ovarian = system: NCI/ADR-RES ovarian
# A549 NSCLC = system: A549 NSCLC
# COLO 205 colon = system: COLO 205 colon
# SNB-19 CNS = system: SNB-19 CNS
# HCT-15 colon = system: HCT-15 colon
# 786-0 renal = system: 786-0 renal
# UACC-62 melanoma = system: UACC-62 melanoma
# TK-10 renal = system: TK-10 renal
# HCT-116 colon = system: HCT-116 colon
# MDA-MB-231 breast = system: MDA-MB-231 breast
# LOX IMVI melanoma = system: LOX IMVI melanoma
# NCI-H522 lung = system: NCI-H522 lung
# UO-31 renal = system: UO-31 renal
# HL-60(TB) leukemia = system: HL-60(TB) leukemia
# SK-MEL-5 melanoma = system: SK-MEL-5 melanoma
# SR leukemia = system: SR leukemia
# SF-539 CNS = system: SF-539 CNS
# K-562 leukemia = system: K-562 leukemia
# MALME-3M melanoma = system: MALME-3M melanoma
# SF-268 CNS = system: SF-268 CNS
# OVCAR-4 ovarian = system: OVCAR-4 ovarian
# SN12C renal = system: SN12C renal
# EKVX NSCLC = system: EKVX NSCLC
# CCRF-CEM leukemia = system: CCRF-CEM leukemia
# OVCAR-8 ovarian = system: OVCAR-8 ovarian
# HCC-2998 colon = system: HCC-2998 colon
# HOP-62 NSCLC = system: HOP-62 NSCLC
# BT-549 breast = system: BT-549 breast
# PC-3 prostate = system: PC-3 prostate
# SW-620 colon = system: SW-620 colon
# HT29 colon = system: HT29 colon
# A498 renal = system: A498 renal
# UACC-257 melanoma = system: UACC-257 melanoma
# MOLT-4 leukemia = system: MOLT-4 leukemia
# U251 CNS = system: U251 CNS
# OVCAR-5 ovarian = system: OVCAR-5 ovarian
# HS 578T breast = system: HS 578T breast
# CAKI-1 renal = system: CAKI-1 renal
# SK-OV-3 ovarian = system: SK-OV-3 ovarian
# RXF 393 renal = system: RXF 393 renal
# NCI-H226 lung = system: NCI-H226 lung
# MDA-MB-435 = system: MDA-MB-435
# SK-MEL-28 melanoma = system: SK-MEL-28 melanoma
# NCI-H23 lung = system: NCI-H23 lung
# OVCAR-3 ovarian = system: OVCAR-3 ovarian
# SNB-75 CNS = system: SNB-75 CNS
smiles,measurement,setting,value
O=c1ncc(I)cn1C1CC(O)C(CO)O1 (stereo unspecified),GI50,MCF7 breast,1.43 mM
same,TGI,MCF7 breast,> 3.25 mM
same,GI50,SK-MEL-2 melanoma,> 3.25 mM
same,TGI,SK-MEL-2 melanoma,> 3.25 mM
same,GI50,RPMI-8226 leukemia,> 3.25 mM
same,TGI,RPMI-8226 leukemia,> 3.25 mM
same,GI50,DU-145 prostate,1.53 mM
same,TGI,DU-145 prostate,> 3.25 mM
same,GI50,ACHN renal,3.12 mM
same,TGI,ACHN renal,> 3.25 mM
same,GI50,M14 melanoma,1.11 mM
same,TGI,M14 melanoma,> 3.25 mM
same,GI50,HOP-92 NSCLC,> 3.25 mM
same,TGI,HOP-92 NSCLC,> 3.25 mM
same,GI50,KM12 colon,1.74 mM
same,TGI,KM12 colon,> 3.25 mM
same,GI50,T-47D breast,2.22 mM
same,TGI,T-47D breast,> 3.25 mM
same,GI50,NCI-H460 lung,1.54 mM
same,TGI,NCI-H460 lung,> 3.25 mM
same,GI50,NCI/ADR-RES ovarian,1.75 mM
same,TGI,NCI/ADR-RES ovarian,> 3.25 mM
same,GI50,A549 NSCLC,2.46 mM
same,TGI,A549 NSCLC,> 3.25 mM
same,GI50,COLO 205 colon,1.21 mM
same,TGI,COLO 205 colon,> 3.25 mM
same,GI50,SNB-19 CNS,> 3.25 mM
same,TGI,SNB-19 CNS,> 3.25 mM
same,GI50,HCT-15 colon,1.68 mM
same,TGI,HCT-15 colon,> 3.25 mM
same,GI50,786-0 renal,3.1 mM
same,TGI,786-0 renal,> 3.25 mM
same,GI50,UACC-62 melanoma,1.48 mM
same,TGI,UACC-62 melanoma,> 3.25 mM
same,GI50,TK-10 renal,> 3.25 mM
same,TGI,TK-10 renal,> 3.25 mM
same,GI50,HCT-116 colon,1.31 mM
same,TGI,HCT-116 colon,> 3.25 mM
same,GI50,MDA-MB-231 breast,> 3.25 mM
same,TGI,MDA-MB-231 breast,> 3.25 mM
same,GI50,LOX IMVI melanoma,982 µM
same,TGI,LOX IMVI melanoma,> 3.25 mM
same,GI50,NCI-H522 lung,668 µM
same,TGI,NCI-H522 lung,1.25 mM
same,GI50,UO-31 renal,711 µM
same,TGI,UO-31 renal,1.76 mM
same,GI50,HL-60(TB) leukemia,613 µM
same,TGI,HL-60(TB) leukemia,> 3.25 mM
same,GI50,SK-MEL-5 melanoma,2 mM
same,TGI,SK-MEL-5 melanoma,> 3.25 mM
same,GI50,SR leukemia,1.17 mM
same,TGI,SR leukemia,> 3.25 mM
same,GI50,SF-539 CNS,2.36 mM
same,TGI,SF-539 CNS,> 3.25 mM
same,GI50,K-562 leukemia,1.22 mM
same,TGI,K-562 leukemia,> 3.25 mM
same,GI50,MALME-3M melanoma,> 3.25 mM
same,TGI,MALME-3M melanoma,> 3.25 mM
same,GI50,SF-268 CNS,2.11 mM
same,TGI,SF-268 CNS,> 3.25 mM
same,GI50,OVCAR-4 ovarian,1.51 mM
same,TGI,OVCAR-4 ovarian,> 3.25 mM
same,GI50,SN12C renal,2.71 mM
same,TGI,SN12C renal,> 3.25 mM
same,GI50,EKVX NSCLC,> 3.25 mM
same,TGI,EKVX NSCLC,> 3.25 mM
same,GI50,CCRF-CEM leukemia,709 µM
same,TGI,CCRF-CEM leukemia,> 3.25 mM
same,GI50,OVCAR-8 ovarian,2.61 mM
same,TGI,OVCAR-8 ovarian,> 3.25 mM
same,GI50,HCC-2998 colon,2.91 mM
same,TGI,HCC-2998 colon,> 3.25 mM
same,GI50,HOP-62 NSCLC,2.94 mM
same,TGI,HOP-62 NSCLC,> 3.25 mM
same,GI50,BT-549 breast,1.51 mM
same,TGI,BT-549 breast,> 3.25 mM
same,GI50,PC-3 prostate,> 3.25 mM
same,TGI,PC-3 prostate,> 3.25 mM
same,GI50,SW-620 colon,1.13 mM
same,TGI,SW-620 colon,> 3.25 mM
same,GI50,HT29 colon,1.83 mM
same,TGI,HT29 colon,> 3.25 mM
same,TGI,A498 renal,> 3.25 mM
same,GI50,UACC-257 melanoma,> 3.25 mM
same,TGI,UACC-257 melanoma,> 3.25 mM
same,GI50,MOLT-4 leukemia,1.17 mM
same,TGI,MOLT-4 leukemia,> 3.25 mM
same,GI50,U251 CNS,1.16 mM
same,TGI,U251 CNS,> 3.25 mM
same,GI50,OVCAR-5 ovarian,> 3.25 mM
same,TGI,OVCAR-5 ovarian,> 3.25 mM
same,GI50,HS 578T breast,> 3.25 mM
same,TGI,HS 578T breast,> 3.25 mM
same,GI50,CAKI-1 renal,1.47 mM
same,TGI,CAKI-1 renal,> 3.25 mM
same,GI50,SK-OV-3 ovarian,2.1 mM
same,TGI,SK-OV-3 ovarian,> 3.25 mM
same,GI50,RXF 393 renal,> 3.25 mM
same,TGI,RXF 393 renal,> 3.25 mM
same,GI50,NCI-H226 lung,> 3.25 mM
same,TGI,NCI-H226 lung,> 3.25 mM
same,GI50,MDA-MB-435,1.02 mM
same,TGI,MDA-MB-435,> 3.25 mM
same,GI50,SK-MEL-28 melanoma,3.15 mM
same,TGI,SK-MEL-28 melanoma,> 3.25 mM
same,GI50,NCI-H23 lung,1.62 mM
same,TGI,NCI-H23 lung,> 3.25 mM
same,GI50,OVCAR-3 ovarian,1.07 mM
same,TGI,OVCAR-3 ovarian,> 3.25 mM
same,GI50,SNB-75 CNS,> 3.25 mM
same,TGI,SNB-75 CNS,> 3.25 mM
